The record followed here is US7868013B2, “Cycloalkyl substituted pyrimidinediamine compounds and their uses” (Rigel Pharmaceuticals, Inc., priority 2004, dated 2011).

The subject of test [1] is A549 (lung carcinoma). Put plainly: In vitro antiproliferation assay, A549 cells (TABLE 1 6 point assay; TABLE 2). It counts as cell-based. The settings on record: Homo sapiens. As for the experimental part: (§1) Certain compounds were tested against other cell types for their ability to inhibit proliferation in standard antiproliferation assays.
Test [2] deals with H1299 (non-small cell lung carcinoma). Put plainly: In vitro antiproliferation assay, H1299 cells (TABLE 1 6 point assay; TABLE 2). The format is cell-based. The settings on record: Homo sapiens. As for the experimental part: as §1
[3] abbreviates: A549, 6 point assay, A549 cells, read-out: IC50, A549 cells.
The mark [4] stands for this setting: NCI-H1299, 6 point assay, H1299 cells, read-out: IC50, H1299 cells.
Where [5] appears, read: A549, A549 cells, 6 point assay, read-out: A549, 6pt (IC50, inhibition of proliferation).
Setting [6] is: NCI-H1299, H1299 cells, 6 point assay, read-out: H1299, 6pt (IC50, inhibition of proliferation).

Where two headings read alike, the source gives them in different places. Bounds are passed on as bounds.

For the compound `CN1CCN(c2ccc(Nc3ncc(F)c(NC4C5C=CC(C5)C4C(N)=O)n3)cc2)CC1` (racemic) [compound 230, Racemic-(2-exo,3-exo)-N4-(3-aminocarbonylbicyclo[2.2.1]hept-5-en-2-yl)-5-fluoro-N2-[4-(4-methylpiperazin-1-yl)phenyl]-2,4-pyrimidinediamine], the IC50 in test [1] (setting [3]) and in test [2] (setting [4]) was at most 100 nM in each case.

Consider `Cc1ccc(Nc2ncc(F)c(N[C@H]3[C@@H](C(N)=O)[C@@H]4C=C[C@H]3C4)n2)cc1OCCN1CCOCC1` [compound 115, (1R,2R,3S,4S)-N4-(3-Aminocarbonylbicyclo[2.2.1]hept-5-en-2-yl)-5-fluoro-N2-[4-methyl-3-(2-morpholinoethyloxy)phenyl]-2,4-pyrimidinediamine], for which the IC50 in test [1] (setting [5]) and in test [2] (setting [6]) was at most 100 nM throughout.

For `CN1CCN(c2ccc(Nc3ncc(F)c(N[C@H]4CCC[C@H]4C(N)=O)n3)cc2CO)CC1` (racemic) [compound 217, Racemic-cis-N4-(2-aminocarbonylcyclopent-1-yl)-5-fluoro-N2-[3-hydroxymethylene-4-(4-methylpiperazin-1-yl)phenyl]-2,4-pyrimidinediamine], the IC50 was in the range of 100 to 1000 nM in test [1] (setting [3]) and 1000 to 10000 nM in test [2] (setting [4]).

`Cc1cc(Nc2ncc(F)c(NC3C4C=CC(C4)C3C(=O)NC(C)C)n2)ccc1N1CCN(C)CC1` (racemic) [compound 162]: the IC50 in test [1] (setting [5]) and in test [2] (setting [6]) was at most 100 nM in each case.

`Cc1cc(Nc2ncc(F)c(N[C@H]3C=CCC[C@H]3C(N)=O)n2)ccc1N1CCN(C)CC1` (racemic) [compound 227, Racemic-cis-N4-(2-aminocarbonylcyclohex-5-ene-1-yl)-5-fluoro-N2-[3-methyl-4-(4-methylpiperazin-1-yl)phenyl]-2,4-pyrimidinediamine]: the IC50 in test [1] (setting [3]) and in test [2] (setting [4]) was 1000 to 10000 nM each time.

As for `NC(=O)C1C2C=CC(C2)C1Nc1nc(Nc2cccc(C3CCNCC3)c2)ncc1F` (racemic) [compound 267, Racemic-(2-exo,3-exo)-N4-(3-aminocarbonylbicyclo[2.2.1]hept-5-en-2-yl)-5-fluoro-N2-[3-(piperidin-4-yl)phenyl]-2,4-pyrimidinediamine], the IC50 in test [1] (setting [3]) and in test [2] (setting [4]) was at most 100 nM in each case.

For `CN1CCN(c2ccc(Nc3ncc(F)c(NC4C5C=CC(C5)C4C(N)=O)n3)cc2F)CC1` (racemic) [compound 239, Racemic-(2-exo,3-exo)-N4-(3-aminocarbonylbicyclo[2.2.1]hept-5-en-2-yl)-5-fluoro-N2-[3-fluoro-4-(4-methylpiperazin-1-yl)phenyl]-2,4-pyrimidinediamine], the IC50 in test [1] (setting [3]) and in test [2] (setting [4]) was at most 100 nM throughout.

As to `CN1CCN(c2ccc(Nc3ncc(F)c(NC4C5C=CC(C5)C4C(N)=O)n3)cc2C(N)=O)CC1` (racemic) [compound 260, Racemic-(2-exo,3-exo)-N2-[3-aminocarbonyl-4-(4-methylpiperazin-1-yl)phenyl]-N4-(3-aminocarbonylbicyclo[2.2.1]hept-5-en-2-yl)-5-fluoro-2,4-pyrimidinediamine], the IC50 in test [1] (setting [3]) and in test [2] (setting [4]) was 100 to 1000 nM each time.

For `Cc1cc(Nc2ncc(F)c(NC3C4C=CC(C4)C3C(N)=O)n2)ccc1NC1CCN(C)CC1` (racemic) [compound 262, Racemic-(2-exo,3-exo)-N4-(3-aminocarbonylbicyclo[2.2.1]hept-5-en-2-yl)-5-fluoro-N2-[3-methyl-4-(1-methylpiperidin-4-ylamino)phenyl]-2,4-pyrimidinediamine], the IC50 in test [1] (setting [3]) and in test [2] (setting [4]) was at most 100 nM throughout.

`CS(=O)(=O)N1CCc2cc(Nc3ncc(F)c(N[C@H]4[C@@H](C(N)=O)[C@@H]5C=C[C@H]4C5)n3)ccc21` [compound 188, (1R,2R,3S,4S)-N4-(3-Aminocarbonylbicyclo[2.2.1]hept-5-en-2-yl)-5-fluoro-N2-[1-methylsulfonyl-2,3-dihydro-indol-5-yl]-2,4-pyrimidinediamine]: the IC50 in test [1] (setting [5]) and in test [2] (setting [6]) was at most 100 nM each time.

On to `Cc1cc(Nc2ncc(F)c(NC3C4CCC(C4)C3C(=O)NC3CC3)n2)ccc1N1CCN(C)CC1` (racemic) [compound 252, Racemic-(2-exo,3-exo)-N4-(3-N-cyclopropylaminocarbonylbicyclo[2.2.1]hept-2-yl)-5-fluoro-N2-[3-methyl-4-(4-methylpiperazin-1-yl)phenyl]-2,4-pyrimidinediamine], for which the IC50 in test [1] (setting [3]) and in test [2] (setting [4]) was at most 100 nM in each case.

As to `Cc1cc(Nc2ncc(F)c(N[C@H]3CC[C@@H](C(=O)O)C3)n2)ccc1N1CCN(C)CC1` [compound 219, (1S,3R)-N4-(3-Carboxycyclopent-1-yl)-fluoro-N2-[3-methyl-4-(4-methylpiparazin-1-yl)phenyl]-2,4-pyrimidinediamine], the IC50 in test [1] (setting [3]) and in test [2] (setting [4]) was over 10000 nM throughout.

As for `Cc1cc(Nc2ncc(F)c(N[C@@H]3[C@H](C(=O)NC(C)c4ccccc4)[C@H]4C=C[C@@H]3C4)n2)ccc1N1CCN(C)CC1` (stereo partly drawn) [compound 110, (1S,2S,3R,4R)-N4-5-Fluoro-N4-(3-(R)-alpha-methylbenzylaminocarbonylbicyclo[2.2.1]hept-5-en-2-yl)-N2-[3-methyl-4-(4-methylpiperazin-1-yl)phenyl]-2,4-pyrimidinediamine], the IC50 in test [1] (setting [5]) and in test [2] (setting [6]) was 100 to 1000 nM each time.

On to `Cc1cc(Nc2ncc(F)c(NC3C4C=CC(C4)C3C(N)=O)n2)ccc1N1CC(C)OC(C)C1` (racemic) [Compound 284, Racemic-(2-exo,3-exo)-N4-(3-aminocarbonylbicyclo[2.2.1]hept-5-en-2-yl)-N2-[4-(2,6-dimethylmorpholino)-3-methylphenyl]-5-fluoro-2,4-pyrimidinediamine], for which the IC50 in test [1] (setting [3]) and in test [2] (setting [4]) was at most 100 nM throughout.

In the case of `COc1cc(Nc2ncc(F)c(NC3C4C=CC(C4)C3C(N)=O)n2)ccc1N1CCN(C)CC1` (racemic) [compound 256, Racemic-(2-exo,3-exo)-N4-(3-aminocarbonylbicyclo[2.2.1]hept-5-en-2-yl)-5-fluoro-N2-[3-methoxy-4-(4-methylpiperazin-1-yl)phenyl]-2,4-pyrimidinediamine], the IC50 in test [1] (setting [3]) and in test [2] (setting [4]) was at most 100 nM in each case.

As for `CCNC(=O)C1C2C=CC(C2)C1Nc1nc(Nc2ccc(N3CCN(C)CC3)c(C)c2)ncc1F` (racemic) [compound 167, Racemic-(2-exo,3-exo)-N4-[3-(N-ethyl)aminocarbonylbicyclo[2.2.1]hept-5-en-2-yl]-5-fluoro-N2-[3-methyl-4-(4-methylpiperazin-1-yl)phenyl]-2,4-pyrimidinediamine], the IC50 in test [1] (setting [5]) and in test [2] (setting [6]) was at most 100 nM throughout.

In the case of `CN(C)CCN1CCc2cc(Nc3ncc(F)c(NC4C5CCC(C5)C4C(=O)NC4CC4)n3)ccc21` (racemic) [compound 178, Racemic-(2-exo,3-exo)-N4-[3-cyclopropylaminocarbonylbicyclo[2.2.1]hept-2-yl)-N2-[1-(2-dimethylaminoethyl)-2,3-dihydro-indol-5-yl]-5-fluoro-2,4-pyrimidinediamine], the IC50 in test [1] (setting [5]) and in test [2] (setting [6]) was at most 100 nM throughout.

On to `CS(=O)(=O)N1CCc2cc(Nc3ncc(F)c(NC4C5CCC(C5)C4C(=O)NC4CC4)n3)ccc21` (racemic) [compound 180, Racemic-(2-exo,3-exo)-N4-[3-cyclopropylaminocarbonylbicyclo[2.2.1]hept-2-yl)-5-fluoro-N2-[1-methylsulfonyl-2,3-dihydro-indol-5-yl]-2,4-pyrimidinediamine], for which the IC50 in test [1] (setting [5]) and in test [2] (setting [6]) was at most 100 nM in each case.

Consider `Cc1cc(Nc2ncc(F)c(NC3C4C=CC(C4)C3C(N)=O)n2)ccc1N1CCN(C(C)C)CC1` (racemic) [compound 232, Racemic-(2-exo,3-exo)-N4-(3-aminocarbonylbicyclo[2.2.1]hept-5-en-2-yl)-5-fluoro-N2-[4-(4-isopropylpiperazin-1-yl)-3-methylphenyl]-2,4-pyrimidinediamine], for which the IC50 in test [1] (setting [3]) and in test [2] (setting [4]) was at most 100 nM throughout.

Take `CCS(=O)(=O)N1CCN(c2ccc(Nc3ncc(F)c(NC4C5C=CC(C5)C4C(N)=O)n3)cc2C)CC1` (racemic) [compound 261, Racemic-(2-exo,3-exo)-N4-(3-aminocarbonylbicyclo[2.2.1]hept-5-en-2-yl)-N2-[4-(4-ethylsulfonylpiperazin-1-yl)-3-methylphenyl]-5-fluoro-2,4-pyrimidinediamine]: the IC50 in test [1] (setting [3]) and in test [2] (setting [4]) was at most 100 nM in each case.

For `CN1CCC(Oc2ccc(Nc3ncc(F)c(N[C@H]4[C@@H](C(N)=O)[C@@H]5C=C[C@H]4C5)n3)cc2)CC1` [compound 146, (1R,2R,3S,4S)-N4-(3-Aminocarbonylbicyclo[2.2.1]hept-5-en-2-yl)-5-fluoro-N2-[4-(1-methylpiperidin-4-yloxy)phenyl]-2,4-pyrimidinediamine], the IC50 in test [1] (setting [5]) and in test [2] (setting [6]) was at most 100 nM throughout.

For `Cc1cc(Nc2ncc(F)c(NC3C4C=CC(C4)C3C(N)=O)n2)ccc1N1CCNCC1` (racemic) [compound 108], the IC50 in test [1] (setting [5]) is over 10000 nM; in test [2] (setting [6]), 1000 to 10000 nM.

For `CN1CCN(C(=O)c2cc3cc(Nc4ncc(F)c(N[C@H]5CCC[C@H]5C(N)=O)n4)ccc3o2)CC1` (racemic) [compound 130, Racemic-cis-N4-(2-aminocarbonylcyclopent-1-yl)-5-fluoro-N2-[2-(4-methylpiperazin-1-ylcarbonyl)benzofuran-5-yl]-2,4-pyrimidinediamine], the IC50 in test [1] (setting [5]) and in test [2] (setting [6]) was 1000 to 10000 nM throughout.
